How the values were obtained:
[1] = Study on stability of Crystal form I, II and III (influencing factors; character, moisture content, relevant substances by HPLC, XRPD); format: physicochemical; conditions: for Stability of the samples (conclusion): influencing factor conditions (high temperature, high moisture, light)
Method: The samples were tested for character, relevant substances, moisture content, XRPD pattern, etc. […] The samples were tested for relevant substances, content, character, moisture content, XRPD pattern, etc. During the study, the uncovered experimental samples were kept in cultured dishes in the air. […] During the study, the uncovered experimental samples were kept in cultured dishes in the air. […] With respect to relevant substances, in accordance with High Performance Liquid Chromatography in Appendix V D in Pharmacopoeia of the People's Republic of China (2010), the samples were determined by area normalization method. Instrument: High Performance Liquid Chromatographic Instrument (Agilent 1200/1260 series) Chromatographic column: chromatographic column using octylsilane chemically bonded silica as filler (HC-C8, 4.6×250 mm, 5 μm) Column temperature: 30° C. Detection wavelength: 230 nm Mobile phase: mobile phase consisting of 0.03 mol/L diammonium hydrogen phosphate/0.03 mol/L sodium perchlorate solution-acetonitrile, and reversed-phase gradient elution was employed. Flow rate: 1.0 mL/min Injection volume: 10 μL Method for determining moisture content: the moisture content was determined in accordance with First Method for Determining Moisture Content B (Coulometric Titration) in Appendix VIII M in Pharmacopoeia of the People's Republic of China (2010).

[2] = Evaluation on pharmacokinetics in SD rats, intragastric administration; format: in vivo; conditions: 5 mg/kg; for AUC0-t / AUCinf / Cmax (maximum blood concentration) / T1/2 (drug elimination half-life) / Tmax (time to maximum blood concentration): suspension in water
Method: An amorphous form of a compound of Formula (I), the preparation method of which could be found in the particular Examples as disclosed in the international patent application (Publication No. WO 2012027960 A1).
Test animal: SD rats, male, weighed 190-250 g, 6 rats for each crystal form, purchased from Beijing Vital River Laboratory Animal Technology Co., Ltd.
Administration route: intragastric administration, at an administration dose of 5 mg/kg, and an administration volume of 10 mL/kg.
Blood collection: whole blood (about 100 μL) was collected from tail vein 10 min, 30 min, 1 h, 2 h, 4 h, 6 h, 8 h, and 24 h after administration, and added to K2EDTA-containing anticoagulation tubes. The whole blood sample was centrifuged for 6 min at 4° C., 8000 rpm in a high speed centrifuge, and plasma was separated. Plasma needed to be prepared within 30 min after blood collection, and stored at −80° C. in a refrigerator.
Plasma sample analysis: the plasma samples were analyzed by protein precipitation: to plasma (20 μL), an internal standard Gefitinib (200 μL, 50 ng/mL acetonitrile solution) was added; the resultant mixture was vortexed at 500 rpm for 5 min, and centrifuged at 4000 rpm for 20 min in a high speed centrifuge; to the supernatant (100 μL), water (100 μL) was added; the resultant mixture was mixed homogeneously under vortexing and analyzed by LC-MS/MS for blood concentration.
Calculation for PK parameters: PK parameters were calculated by using Pharsight Phoenix 6.2 software.

[3] = Comparison of stability between crystal forms and amorphous form, 60° C. uncovered, relevant substances by HPLC; format: physicochemical; conditions: for Change in total relevant substances (conclusion): 60° C. uncovered, 5 days and 10 days
Method: Instrument: High Performance Liquid Chromatographic Instrument (Agilent 1260 series) Chromatographic column: chromatographic column using octylsilane chemically bonded silica as filler (HC-C8, 4.6×250 mm, 5 μm) Column temperature: 30° C. Detection wavelength: 230 nm Mobile phase: Mobile phase consisting of 0.06 mol/L sodium dihydrogen phosphate/0.06 mol/L sodium perchlorate solution-acetonitrile, and reversed-phase gradient elution was employed. Flow rate: 1.0 mL/min Injection volume: 10 μL

[4] = 10 days, 40° C./RH75% uncovered
[5] = influencing factor condition for 10 days

## C=CC(=O)Nc1cc2c(Nc3ccc(F)c(Cl)c3)ncnc2cc1OCC1CC2(CCN(C)CC2)C1 [Crystal form II, N-(4-((3-chloro-4-fluorophenyl)amino)-7-((7-methyl-7-azaspiro[3.5]nonan-2-yl)methoxy)quinazolin-6-yl)acrylamide]
[1]; 0 day
  Character: light yellow
  Crystal form: Crystal
  Moisture content: 3.5%
  Relevant substance: 0.37%
[1]; 5 days, 40° C./RH75% covered
  Character: light yellow
  Crystal form: the same
  Moisture content: 3.6%
  Relevant substance: 0.34%
[1]; 5 days, 40° C./RH75% uncovered
  Character: light yellow
  Crystal form: the same
  Moisture content: 3.7%
  Relevant substance: 0.38%
[1]; 5 days, 60° C. covered
  Character: light yellow
  Crystal form: the same
  Moisture content: 3.6%
  Relevant substance: 0.33%
[1]; 5 days, 60° C. uncovered
  Character: light yellow
  Crystal form: the same
  Moisture content: 3.6%
  Relevant substance: 0.35%
[1]; 5 days, RH-75%
  Character: light yellow
  Crystal form: the same
  Moisture content: 3.6%
  Relevant substance: 0.35%
[1]; 5 days, RH-92.5%
  Character: light yellow
  Crystal form: the same
  Moisture content: 3.7%
  Relevant substance: 0.36%
[1]; 5 days, light
  Character: light yellow
  Crystal form: the same
  Moisture content: 3.7%
  Relevant substance: 0.35%
[1]; 10 days, 40° C./RH75% covered
  Character: light yellow
  Crystal form: the same
  Moisture content: 3.6%
  Relevant substance: 0.33%
[1]; [4]
  Character: light yellow
  Crystal form: the same
  Moisture content: 3.8%
  Relevant substance: 0.33%
[1]; 10 days, 60° C. covered
  Character: light yellow
  Crystal form: the same
  Moisture content: 3.7%
  Relevant substance: 0.36%
[1]; 10 days, 60° C. uncovered
  Character: light yellow
  Crystal form: the same
  Moisture content: 3.7%
  Relevant substance: 0.43%
[1]; 10 days, RH-75%
  Character: light yellow
  Crystal form: the same
  Moisture content: 3.7%
  Relevant substance: 0.36%
[1]; 10 days, RH-92.5%
  Character: light yellow
  Crystal form: the same
  Moisture content: 3.7%
  Relevant substance: 0.34%
[1]; 10 days, light
  Character: light yellow
  Crystal form: the same
  Moisture content: 3.7%
  Relevant substance: 0.35%
[1]; [5]
  Change in Crystal form (XRPD pattern test): no change
  Change in impurities: no significant change
[1]; 10 days
  Stability of the samples (conclusion): relatively stable
[2]
  Pharmacokinetic properties (conclusion): good pharmacokinetic properties
  AUC0-t: 1536 ng·h/mL
  AUCinf: 1591 ng·h/mL
  Cmax (maximum blood concentration): 135 ng/mL
  T1/2 (drug elimination half-life): 4.59 h
  Tmax (time to maximum blood concentration): 3 h
[3]; 0 day
  Total relevant substances: 0.64%
[3]
  Change in total relevant substances (conclusion): little increase in total relevant substances
[3]; 60° C. uncovered-5 days
  Total relevant substances: 0.66%
[3]; 60° C. uncovered-10 days
  Total relevant substances: 0.70%

## C=CC(=O)Nc1cc2c(Nc3ccc(F)c(Cl)c3)ncnc2cc1OCC1CC2(CCN(C)CC2)C1 [Crystal form III, N-(4-((3-chloro-4-fluorophenyl)amino)-7-((7-methyl-7-azaspiro[3.5]nonan-2-yl)methoxy)quinazolin-6-yl)acrylamide]
[1]; 0 day
  Character: light yellow powder
  Moisture content: 3.5%
  Total relevant substances: 0.66%
[1]; 60° C. uncovered, 5 days vs Day 0
  Increase of total relevant substances: 0.28%
[1]; 60° C. uncovered, 10 days vs Day 0
  Increase of total relevant substances: 0.44%
[1]; 5 days, 40° C./RH75% covered
  Character: light yellow powder
  Moisture content: 3.6%
  Total relevant substances: 0.57%
[1]; 5 days, 40° C./RH75% uncovered
  Character: light yellow powder
  Moisture content: 3.9%
  Total relevant substances: 0.63%
[1]; 5 days, 60° C. covered
  Character: light yellow powder
  Moisture content: 3.6%
  Total relevant substances: 0.60%
[1]; 5 days, 60° C. uncovered
  Character: light yellow powder
  Moisture content: 3.5%
  Total relevant substances: 0.94%
[1]; 5 days, RH-75%
  Character: light yellow powder
  Moisture content: 4.0%
  Total relevant substances: 0.62%
[1]; 5 days, RH-92.5%
  Character: light yellow powder
  Moisture content: 4.0%
  Total relevant substances: 0.58%
[1]; 5 days, visible light
  Character: light yellow powder
  Moisture content: 3.7%
  Total relevant substances: 0.68%
[1]; 10 days, 40° C./RH75% covered
  Character: light yellow powder
  Moisture content: 3.6%
  Total relevant substances: 0.59%
[1]; [4]
  Character: light yellow powder
  Moisture content: 3.9%
  Total relevant substances: 0.62%
[1]; 10 days, 60° C. covered
  Character: light yellow powder
  Moisture content: 3.5%
  Total relevant substances: 0.64%
[1]; 10 days, 60° C. uncovered
  Character: light yellow powder
  Moisture content: 3.4%
  Total relevant substances: 1.1%
[1]; 10 days, RH-75%
  Character: light yellow powder
  Moisture content: 3.8%
  Total relevant substances: 0.56%
[1]; 10 days, RH-92.5%
  Character: light yellow powder
  Moisture content: 4.3%
  Total relevant substances: 0.60%
[1]; 10 days, UV light
  Character: light yellow powder
  Moisture content: 3.8%
  Total relevant substances: 0.70%
[1]; 10 days
  Stability of the samples (conclusion): good stability
[2]
  Pharmacokinetic properties (conclusion): good pharmacokinetic properties
  AUC0-t: 1324 ng·h/mL
  AUCinf: 1340 ng·h/mL
  Cmax (maximum blood concentration): 134 ng/mL
  T1/2 (drug elimination half-life): 3.35 h
  Tmax (time to maximum blood concentration): 4 h
[3]; 0 day
  Total relevant substances: 0.81%
[3]
  Change in total relevant substances (conclusion): little increase in total relevant substances
[3]; 60° C. uncovered-5 days
  Total relevant substances: 1.1%
[3]; 60° C. uncovered-10 days
  Total relevant substances: 2.0%

— patent US10689359B2, “Crystals of quinazoline derivative and preparation method therefor” (Xuanzhu Pharma Co., Ltd., priority 2015, dated 2020)
